Results as given in US11072584B2, “Carbon monoxide releasing norbornenone compounds” (OTAGO INNOVATION LIMITED, priority 2015, dated 2021).
Entries after “also recorded” stand apart in the source; their conditions may differ. Where a name gives a salt, the structure may show the parent alone. Read-outs that look alike come from different tables or passages of the source.

Columns and labels:
Solubility in water = format: physicochemical; conditions: for solubility (in words): water or physiological buffers
MDCK cells [1] = assay: crystal violet cell adhesion (CVCA) cell toxicity assay; conditions: Canis lupus familiaris, MDCK
horse heart myoglobin = assay: carboxymyoglobin spectrophotometric assay (CO binding to myoglobin); format: biochemical; conditions: 25 to 400 μM; 5 to 90 minutes
Experimental: CO released from oCOm-19 and oCOm-21 was measured using an established carboxymyoglobin spectrophotometric assay,^39 adapted to a 96 well plate format to enable the simultaneous correction at all absorbance wavelengths arising from any potential interference from the donor compounds.^40 Freshly prepared horse heart myoglobin (66 μM) in a PBS solution (pH 7.4) was reduced with 10% w/v sodium dithionite and added to a 96 well plate. […] Absorption spectra (λ 500-600 nm) were run at ten minute intervals using a Spectramax 96-well spectrophotometer (Molecular Devices, Crawley, UK) at 37° C. CO gas saturated PBS (714 μM), was employed as a positive control.

[2] = CO release by HPLC analysis of breakdown of CO donor to its CO depleted form; format: physicochemical
Experimental: HPLC grade acetonitrile (CH3CN) was purchased from Merck Chemicals. MilliQ grade H2O was obtained from a Millipore purification system. HPLC grade trifluoroacetic acid (TFA) was purchased from Scharlau. HPLC analyses were conducted on an analytical RP-HPLC (Shimadzu LC-20AD equipped with an SPD-20A UV detector [210 and 254 nm]) using a Phenomenex Prodigy column (C-18, 5 μm, 3.00×250 mm) at 0.5 mL/min and heated to 40° C. Unless otherwise stated, the solvent system for all LC purposes was a mixture of A (0.05% TFA in H2O) and B (CH3CN). The method used was 10% to 100% B over 12.5 min, then 100% B for 2.5 min, unless otherwise stated.
In addition, the rate of CO release was measured in different physiological solutions at pH 7.4, 37° C.: phosphate buffered saline (PBS), Tris-sucrose buffer and UW solution using an amperiometric CO selective electrode (ISO-COP-2, World Precision Instruments (WPI), Inc, Sarasota, USA). The amount of CO released was recorded as the magnitude of electrode current generated on CO diffusion through a selective gas permeable membrane and oxidised to CO2 on the electrode. Current changes were recorded using a WPI TRB4100 4-channel free radical analyser with the poise potential set to 950 mV. […] The effect of pH upon the release of CO was assessed by adjusting the pH of Tris sucrose buffer to pH 6.6 using HCl and to pH 8.5 using NaOH. […]

[3] = system: isolated rat aortic rings; assay: isolated rat aortic ring vasorelaxation; parameters: species or system Lewis rats; conditions: rings pre-contracted with phenylephrine, 37° C.
Experimental: Transverse ring sections of aorta were isolated from male Lewis rats ([…], n=5-6 per group) under halothane anaesthesia and suspended under 2 g tension in an organ bath containing 10 mL of oxygenated (95% O2/5% CO2) Krebs Henseleit (KH) buffer containing 118 mM NaCl, 4.7 mM KCl, 1.2 mM KH2PO4, 1.2 mM MgSO4.7H2O, 22 mM NaHCO3, 11 mM glucose, 0.03 mM K^+ EDTA, and 2.5 mM CaCl2 as previously described.^43 Indomethacin (10 μM) was present in the buffer to exclude endogenous prostaglandins as potential modulators of vascular tone. Relaxation responses to oCOm-19 or oCOm-21 ([…]) were assessed using individual dosing in tissues pre-contracted with phenylephrine (0.1 μM). All results were subsequently expressed as a percentage of the maximal phenylephrine-induced contraction. Following repeat wash steps with Krebs Henseleit buffer, smooth muscle function and viability was confirmed by repeating the contractile response to phenylephrine. Aortic responses to individual EC50 concentrations of either CO donor in phenylephrine vasoconstricted rings were repeated separately, in the presence of the CO-chelator, myoglobin (5 μM) and the selective, irreversible inhibitor of sGC 1H-(1,2,4)oxadiazolo[4,3-a]quinoxalin-1-one, (ODQ, 10 μM), as previously described.^44

[4] = oral bioavailability: blood carboxyhaemoglobin after oral gavage; format: in vivo, Sprague Dawley rats
Experimental: Male Sprague Dawley rats (300-320 g) were orally dosed with either oCOm-19 (133.33 μmol/kg) or oCOm-21 (33.33 μmol/kg) in ultra-pure water by oral gavage. Animals were observed every 15 minutes for any changes in behaviour or signs of distress. Tail vein blood samples were collected in heparinised capillary tubes immediately prior to and at 1-3 hours post CO-donor administration. Blood gas analysis on each sample was performed using a Radiometer ABL800 Flex analyser.

MDA-MB-231 = assay: crystal violet cell viability assay; format: cell-based; conditions: for EC50: Homo sapiens; for cellular toxicity (in words): MDA-MB-231 cells
Experimental: The loss of cell adhesion for anchorage-dependent cell lines, such as MDCK, represents a surrogate marker of imminent cellular demise which can be measured by the crystal violet cell adhesion (CVCA) assay.^42 MDCK cells were grown in DMEM supplemented with 4% donor calf serum and 1% antibiotic (Gibco Life Technologies, Auckland NZ) and plated at 1×10^6 cells/mL in 24 well plates. CO donor compounds, CO expired compounds (left in solution for over 48 hours) or non CO releasing, debromo derivatives were dissolved in either ultrapure water or for non-water soluble compounds, in DMSO and diluted to 20-100 μM (to a final concentration of 1% DMSO where appropriate). Cells were exposed to CO donor compounds or the respective vehicle control solution for 1 hour at 37° C. prior to washing and incubating for a further 23 hours in fresh media. Cells were fixed in 96% ethanol and stained in 0.05% crystal violet solution in 20% ethanol, prior to washing and solubilising (24 hours) in 2 mL 0.1% acetic acid in 50% ethanol. Sample solutes (100 μL) from each well were transferred into a 96 well plate and absorbance measured at 585 nm. Cell survival was reported as a percentage of the value obtained for cells exposed to vehicle only and used to plot a concentration-response curve for each compound from which an EC50 value was obtained.
Toxicity was reported as EC50 values calculated from percentage cell survival using Origin Pro8 software (OriginLab, MA, USA).

MDCK cells [5] = system: MDCK cells
MDCK cells [6] = assay: imaging of intracellular CO in living cells with fluorescent probe COP-1; format: cell-based, Canine; conditions: 10-50 μM, 37° C. and 8° C., bis-trifluoroacetate Salt
Experimental: A palladium CO-responsive small-molecule fluorescent probe (COP-1) was synthesised and carbonylation of the probe by CO confirmed as previously described.^41 A final concentration of 2 nM of COP-1 was added to each well of a 96-well plate containing 200 μL of Mg^2+ and Ca^2+ free phosphate solution (DPS, 37° C.). CORM-2, oCOm-19 and oCOm-21 (1-100 μM) were added to wells in triplicate, and zeroed against an equivalent volume of vehicle control added to COP-1. Emission spectra (λ 400-600 nm) were recorded at regular time intervals for one hour using a Spectromax Gemini fluorescent plate reader (Molecular Devices, Crawley, UK) at 37° C., (λex 475 nm, and the λem500 nm measured).
The ability of the CO donors to increase intracellular levels of CO was tested in Madin Darby Canine Kidney (MDCK) cells. […] Cells were incubated for 1 hour at either 8 or 37° C. then 1 μM COP-1 in DPS added per well and cells incubated for a further 15 minutes. Cells were imaged on a fluorescent inverted microscope (Nikon Eclipse Ti-E).

[7] = carboxyhaemoglobin in rats exposed to CO gas (earlier unpublished studies); format: in vivo; conditions: 20 ppm CO gas
[8] = read-out: EC50 (μM), Active Compound
[9] = *MDA-MB-231 cells, 1 hr exposure at 37° C., viability after 23 hrs, read-out: EC50 (μM), Active Compound
[10] = * (MDA-MB-231), inactive CO depleted analogues, 37° C., read-out: EC50 (μM), Inactive Compound

SMILES: CC12C(=O)C(C)(C(c3ccccc3)=C1c1ccccc1)C1(Br)C(=O)N(CCC(=O)NCCN)C(=O)C21.Cl (stereo not shown) [oCOm-19, N-(2-Aminoethyl)-3-(3a-bromo-4,7-dimethyl-1,3,8-trioxo-5,6-diphenyl-3a,4,7,7a-tetrahydro-1H-4,7-methanoisoindol-2(2H)-yl)propanamide hydrochloride]
- solubility (in words) (Solubility in water): water soluble
- Solubility in water at 21° C. (Solubility in water; water, 21° C.): 3200 µg/mL
- EC50 (MDCK cells [1]; [8]): 86 µM
- carbonmonoxymyoglobin formation (in words) (horse heart myoglobin): time- and concentration-dependent increase in carbonmonoxymyoglobin formation
- time by which 50% of the donor CO maximum release capacity was depleted [2]: 40 min
- vasorelaxant response (in words) ([3]; hydrochloride): reversible, concentration-dependent vasorelaxant responses; also recorded: reversible, concentration-dependent vasorelaxation; also recorded: vasorelaxant effects
- effect on circulating carboxyhaemoglobin (in words) ([4]; oCOm-19 and DB-13 133.3 μmol/kg, oCOm-21 33.3 μmol/kg, hydrochloride): increase in circulating carboxyhaemoglobin
- behaviour / signs of distress after oral dosing ([4]; observed every 15 minutes): body pressing behaviour indicative of abdominal discomfort

SMILES: CC12C(=O)C(C)(C(c3ccccc3)=C1c1ccccc1)C1(Br)C(=O)N(c3ccccc3)C(=O)C21 (stereo not shown) [oCOm-1, 3a-Bromo-3a,4,7,7a-tetrahydro-4,7-dimethyl-2,5,6-triphenyl-4,7-methano-1H-isoindole-1,3,8(2H)-trione]
- EC50 (MDA-MB-231; [9]): 4.6 µM
- cellular toxicity (in words) (MDA-MB-231): greatest toxicity

SMILES: CC12C(=O)C(C)(C(c3ccccc3)=C1c1ccccc1)C1(Br)C(=O)N(CCNCCN)C(=O)C21 (stereo not shown) [oCOm-23, 2-(2-(2-Aminoethyl)aminoethyl)-3a-bromo-3a,4,7,7a-tetrahydro-4,7-dimethyl-5,6-diphenyl-4,7-methano-1H-isoindole-1,3,8(2H)-trione bis-trifluoroacetate Salt]
- EC50 (MDCK cells [1]; [8]): 10.1 µM
- EC50 (MDCK cells [1]; read-out: EC50 (μM), Active Compound at 8° C.): > 200 µM
- time by which 50% of the donor CO maximum release capacity was depleted [2]: 75 min
- cellular toxicity (in words) (MDCK cells [5]): increased toxicity
- intracellular CO, COP-1 / BODIPY fluorescence (in words) (MDCK cells [6]): Increased BODIPY fluorescence intensity; also recorded: increased intracellular CO levels

SMILES: Cc1c2c(c(C)c(-c3ccccc3)c1-c1ccccc1)C(=O)N(c1ccccc1)C2=O [BP-1, 4,7-Dimethyl-2,5,6-triphenyl-1H-isoindole-1,3(2H)-dione]
- EC50 (MDA-MB-231; [10]): > 200 µM
- melting point: 260 °C

SMILES: Cc1c2c(c(C)c(-c3ccccc3)c1-c1ccccc1)C(=O)N(CCC(=O)ON1C(=O)CCC1=O)C2=O [BP-17, 2,5-Dioxo-1-pyrrolidinyl 4,7-dimethyl-5,6-diphenyl-1H-isoindole-1,3(2H)-dione-2-propanoate]
- EC50 (MDA-MB-231; [10]): 159 µM

SMILES: [C-]#[O+] [CO gas, carbon monoxide]
- carboxyhaemoglobin level ([7]; 2 day duration): 1.1±0.25%
- carboxyhaemoglobin level ([7]; 7 day duration): 2±0.75%

SMILES: COCCOCCOCCOc1ccc(N2C(=O)c3c(C)c(-c4ccccc4)c(-c4ccccc4)c(C)c3C2=O)cc1 [BP-12, 2-(4-(2-(2-(2-Methoxyethoxy)ethoxy)ethoxy)phenyl)-4,7-dimethyl-5,6-diphenyl-1H-isoindole-1,3(2H)-dione]
- EC50 (MDA-MB-231; [10]): 196 µM
- melting point: 127 to 129 °C

SMILES: CC12C(=O)C(C)(C(c3ccccc3)=C1c1ccccc1)C1(Br)C(=O)N(c3ccc(O)cc3)C(=O)C21 (stereo not shown) [oCOm-8, 3a-Bromo-3a,4,7,7a-tetrahydro-4,7-dimethyl-2-(4-hydroxyphenyl)-5,6-diphenyl-4,7-methano-1H-isoindole-1,3,8(2H)-trione]
- EC50 (MDA-MB-231; [9]): 23.1 µM

SMILES: CC12C(=O)C(C)(C(c3ccccc3)=C1c1ccccc1)C1(Br)C(=O)N(CCC(=O)ON3C(=O)CCC3=O)C(=O)C21 (stereo not shown) [oCOm-17, 2,5-Dioxopyrrolidin-1-yl 3-(3a-bromo-4,7-dimethyl-1,3,8-trioxo-5,6-diphenyl-1,3,3a,4,7,7a-hexahydro-2H-4,7-methanoisoindol-2-yl)propanoate]
- solubility (in words) (Solubility in water): lack of solubility in water
- EC50 (MDA-MB-231; [9]): 216 µM
- cellular toxicity (in words) (MDA-MB-231): least toxic

SMILES: COCCOCCOCCOc1ccc(-c2c(C)c3c(c(C)c2-c2ccc(OCCOCCOCCOC)cc2)C(=O)N(c2ccc(OCCOCCOCCOC)cc2)C3=O)cc1 [BP-15, 2,5,6-Tri-(4-(2-(2-(2-methoxyethoxy)ethoxy)ethoxy)phenyl)-4,7-dimethyl-1H-isoindole-1,3(2H)-dione]
- EC50 (MDA-MB-231; [10]): > 200 µM

SMILES: [C-]#[O+].[C-]#[O+].[C-]#[O+].[C-]#[O+].[C-]#[O+].[C-]#[O+].[Cl][Ru][Cl].[Cl][Ru][Cl] [CORM2, Tri-carbonyldichlororuthenium (II) dimer, reference compound]
- carbonmonoxymyoglobin formation (in words) (horse heart myoglobin): characteristic shift in the absorbance maxima of myoglobin

SMILES: COCCOCCOCCOc1ccc(C2=C(c3ccc(OCCOCCOCCOC)cc3)C3(C)C(=O)C2(C)C2C(=O)N(c4ccc(OCCOCCOCCOC)cc4)C(=O)C23Br)cc1 (stereo not shown) [oCOm-15, 3a-Bromo-3a,4,7,7a-tetrahydro-4,7-dimethyl-2,5,6-tri-(4-(2-(2-(2-methoxyethoxy)ethoxy)ethoxy)phenyl)-4,7-methano-1H-isoindole-1,3,8(2H)-trione]
- EC50 (MDA-MB-231; [9]): 183 µM

SMILES: Cc1c2c(c(C)c(-c3ccccc3)c1-c1ccccc1)C(=O)N(CCC(=O)NCCN)C2=O.Cl [BP-19, N-(2-aminoethyl)-3-(4,7-dimethyl-1,3-dioxo-5,6-diphenylisoindolin-2-yl)propanamide Hydrochloride]
- EC50 (MDCK cells [1]; read-out: EC50 (μM), Inactive Compound): > 100 µM
- vasorelaxant response (in words) [3]: no vasorelaxant effect
